The IC50 is the concentration at which inhibition is half-maximal. The low end stands for greater potency, the high end for weaker potency.

In one test the test system is MCF-7 cells. In words: Alamar Blue/raptinal 24-hour cell death assay, MCF-7. The note with it: 24-hour incubation, Alamar blue fluorescence. Format: cell-based, human. The method, then:
FIG. 4. […] MCF7 (ERα) cells, 24 hour incubation, read out via Alamar Blue Fluorescence, Dead Control: Raptinal, n=3 (A, B). […] Orthotopic Mouse Xenograft breast cancers of TYS cells, Visualization by bioluminescent imaging. Treatment: 40 mg/kg daily (−)-105 for 3 days either by oral gavage or by intraperitoneal injection.
ALAMAR BLUE/RAPTINAL ASSAY: Live cells maintain a reducing environment. The non-fluorescent cell permeable ingredient of Alamar Blue® (resazurin) is taken up by cells. In living cells, it is reduced to the fluorescent compound resorufin. Using a standard curve of cell number versus fluorescence the number of live cells in a test sample can be determined. At high concentrations raptinal kills 100% of cells. The vehicle in which the test compound is dissolved is not toxic. Thus, after subtracting the blank for medium alone, the fluorescence reading for vehicle corresponds to 100% viable cells and the signal for raptinal corresponds to 0% viable cells. While this assay provides a less direct measurement of cell death than the trypan blue assay, it is more easily scaled up to large numbers of samples.
(§1) ALAMAR BLUE RAPTINAL ASSAYS: Cells were plated at 4,000-10,000 cells/well (96 well plate), usually in 50 μl of medium. After about 18 hours, an additional 50 μl of medium containing 2× the desired final concentration of the test compound (C-105) was added to each well. After 24 hours Alamar Blue reagent was added and fluorescence in the wells was read (BMG PheraStar or Molecular Devices Spectra Max M3 Microplate Reader). % relative death was determined by setting the reading for raptinal-treated cells to 100% dead cells and the reading for vehicle-treated cells to 0% dead cells.
Preparative gram-scale chiral separation of (±)-1 yields enantiopure (R)-1 and (S)-1 with opposite optical rotations (Scheme 5). […] Values were obtained after 24-hour incubation utilizing Alamar blue fluorescence assay normalized to live and death controls (vehicle and raptinal treated). (S)-1 IC50 is >1 μM. Error shown as S.E.M.
In general terms: The colour change of resazurin is a common sign of viable cells or microbes.

The test system of a further test is T47D cells. The note with it: 100, 500 and 1,000 nM; 24 hours; n=1. Here is the method: One such change is loss of plasma membrane polarity. This is monitored using Annexin V. Dying cells also take up the dye propidium iodide. Propidium iodide (PI) fluoresces when it is intercalated into DNA. These assays monitor cells at specific stages of cell death.
FLOW CYTOMETRY (FITC) ASSAYS: Cells were seeded in 12-well plates, 75,000 cells/well, and allowed to adhere overnight. The next day, the indicated concentrations of raptinal (positive control), (−)-105, (±)-105, and (+)-105 were added and allowed to incubate at 37° C. for 24 hours (Final Volume: 1 ml, 0.1% DMSO). After incubation, cells were harvested and resuspended in 350 μl of cold Annexin binding buffer (10 mM HEPES, 140 mM NaCl, 2.5 mM CaCl2, pH 7.4) premixed with Annexin V-FITC and PI dyes. Samples were analyzed on a BD Biosciences LSRII flow cytometer, and data analysis was performed using FSC Express Version 5-6. Cell death was assessed relative to a DMSO treated control.
T47D, human breast cancer cells were plated at 75,000 cells/well. The next day, DMSO vehicle, 10 μM raptinal (control for 100% cell death), or 0, 50, 100 500 and 1,000 nM of BHPI or (±)-105, or 1,000 nM ICI/fulvestrant or 1,000 nM OHT was added. After 24 hours viable cells were determined by FACS using annexin V-FITC and propidium iodide dyes. (n=3 independent experiments ±SEM).
75,000 ERα positive T47D, human breast cancer cells, were plated/well. The next day, DMSO vehicle, 10 μM raptinal (control for 100% cell death), or 100 500 and 1,000 nM of (+)-105, or (−)-105 was added. After 24 hours viable cells were determined by FACS using annexin V-FITC and propidium iodide dyes. (n=1).

A further test deals with TDG cells. Briefly: Trypan Blue exclusion cell death assay, TDG / TDG-Luc. Format: cell-based, human. The note with it: 24 hours; TDG-Luc. The source says:
TRYPAN BLUE: For decades, viable cells have been measured by their ability to exclude the dye Trypan Blue. […] Dead cells, which have lost membrane integrity, take up the dye and are blue. Thus, the percentage of dead cells is the percentage of cells that are Trypan Blue positive out of the total cell population. Quantitative assessment of Trypan Blue uptake uses a cell counter from Fisher. Since the assay is instrument based, there is no observer bias in determining the percentage of Trypan Blue positive cells.
TRYPAN BLUE ASSAYS: Assays are performed on cells in 6 well plates: 300,000 cells are plated in each well of a 6-well plate in 3 ml of medium. After 24 hours, the DMSO vehicle or the indicated compound is added (in 1000th of the vol.) The cells incubated for an additional 24 hours, and then harvested in 0.25 ml of trypsin, followed after harvest by 0.75 ml of medium. The cells are spun down and resuspended in 100-200 μl of medium left that is over the cell pellet (resuspend cells by pipetting up and down a few times). Add 10 μl to 10 μl of trypan blue. Then 10 μl is inserted into the counting slide. After inserting the slide into the Fisher TC20 counting is automatic (these many cells are needed because an accurate ratio of Trypan Blue positive to Trypan Blue negative cells requires about 200 cells in the field the instrument counts).
The Trypan Blue cell death assay was used to evaluate the ability of the active enantiomer of C-105 [(−)-105] to kill ERα positive TDG-Luc cells. For all studies, 300,000 TDG-Luc cells/well in 10% FBS were plated in a 6-well plate in triplicate. 24 hours after plating, the indicated concentrations the active enantiomer of (−)-105, or BHPI (top) ICI, or OHT (Lower left) or (+)-105 (lower right) were added. After 24 hours, the cells were harvested, and the % dead cells was determined by automated Trypan Blue exclusion using the Countess II automated hemocytometer. Percentage of viable cells was calculated by doing 100-(Cell Death %). (n=3±SEM).
TDG cells were incubated for 24 hours with 75 nM of BHPI or 75 nM of each of the indicated test compounds: 4, 6 and (±)-105 (enantiomers not separated). Cell death was determined using the instrument-based Trypan Blue exclusion assay. Structures are in the Synthesis section. […] (n=3±SEM).

In test [1] the test system is MCF-7Y537S (MCF-7 ERαY537S-luciferase) cells. Briefly: Long-term cell culture experiment, MCF-7 ERαY537S-luciferase. It counts as cell-based, human. The note with it: conditions as FIG. 15 (1 μM).
Test [2] concerns ERα positive and ERα negative cells. Format: cell-based. Here is the method:
as §1
ERα positive MCF-7 breast cancer, Caov-3 ovarian cancer and ECC-1 uterine cancer cells and ERα negative MDA-MB-231 human breast cancer cells and HeLa, human cervical carcinoma cells and MCF-10A human mammary epithelial cells were plated at 10,000 cells/well (96 well plate) in 50 μl of medium. After about 18 hours, an additional 50 μl of medium containing 2× the desired final concentration of the test compound (C-105) was added to each well (final vol. 100 μl/well). After 24 hours Alamar Blue reagent was added and fluorescence in the wells was read after 1 hour (BMG PheraStar Microplate Reader). % relative death was determined by setting the reading for 10,000 nM raptinal-treated cells to 100% dead cells and the reading for vehicle-treated cells to 0% dead cells. (Data is the average ±SEM of 3 independent experiments with 5 biological replicates for each sample within each independent experiment.)
FIG. 3 compares the ability of (±)-105 to kill ERα positive and ERα negative cells. The dose response tests the ability of (±)-105 to rapidly kill ERα positive and ERα negative cells. […] After 24 hours Alamar Blue reagent was added and fluorescence in the wells was read. % relative death was determined by setting the reading for […] raptinal-treated cells to 100% dead cells and the reading for vehicle-treated cells to 0% dead cells. […]

The subject of a further test is MCF-7 and TYS-Luc. In words: Trypan Blue cell death plus or minus 2-APB, MCF-7 and TYS-Luc. It counts as cell-based, human. Here is the method:
ERα positive MCF-7 and TYS-Luc were treated with DMSO vehicle (Veh), or BHPI or (−)-105 plus or minus 2-APB for the indicated times. Cells death was determined using the instrument-based Trypan Blue exclusion assay. […] This is consistent with (−)-105 inducing powerful lethal activation of the anticipatory UPR pathway. (n=3±SEM).

`O=C1Nc2c(C(F)(F)F)cccc2C1(c1ccc(O)cc1)c1ccc(OC(F)(F)F)cc1` (single isomer, unassigned; (+)) [(+)-105, 3-(4-hydroxyphenyl)-3-(4-(trifluoromethoxy)phenyl)-7-(trifluoromethyl)indolin-2-one]: the IC50 with MCF-7 cells (normalized to vehicle and raptinal, listed as (S)-1) is above 1000 nM; with MCF-7 cells (Homo sapiens, MCF7, 24 h), above 1000 nM. Also, the “activity of enantiomers (cell death)” value with T47D cells is “inactive”. Also, the “killing of TDG-Luc cells, dose response” value in the test on TDG cells was “inactive and does not kill”. For the same molecule, in test [1], the “eradication of cells in long-term experiment” value was “inactive”. In test [2], the “effect in ERα positive and ERα negative cell lines” value was “ineffective and not toxic”.
For `NCCOB(c1ccccc1)c1ccccc1` [Compound 2-APB], the “block of (−)-105-induced cell death” value in the test with MCF-7 and TYS-Luc (45 and 60 min.) was “partially blocked”; in the test on MCF-7 and TYS-Luc (30 minutes), “nearly completely blocked”.

Source of the values: US11046647B2, “Activators of the unfolded protein response” (The Board of Trustees of the University of Illinois, priority 2018, dated 2021).
